Assay results taken from patent US20140038181A1, “CHEMICALLY SUBSTITUTED THERMOSENSITIVE PROBES AND COFACTORS FOR HOT START LIGATION” (TRILINK BIOTECHNOLOGIES, priority 2011, published 2014).
In the oligonucleotide strings, read from the 5' end, every base follows the letter of its sugar. An asterisk marks phosphorothioate; unmarked linkages are phosphodiester. Other units and linkages are bracketed, terminal groups are in braces. A string of capitals states the bases alone. [OXT] = OXT-substituted phosphotriester internucleotide linkage; d = 2'-deoxy (DNA)

Legend:
[1] = system: complementary DNA target sequence; test: UV-melting temperature of complexes of acceptor probes with complementary DNA target sequence; type: physicochemical; conditions: 2 μM oligonucleotides; for Tm: NaCl 137 mM, KCl 2.7 mM, phosphate buffer pH 7.4, 260 nm; for ΔTm (PDE - PTE): versus unsubstituted acceptor probe, pH 7.4
T4 DNA ligase = target: T1, T4 DNA ligase (Enterobacteria phage T4, UniProt P00970); type: biochemical, bacteriophage T4
T1 construct: purchased New England Biolabs

[2] = Thermal conversion of 2′,3′-substituted ATP to unsubstituted ATP in ligase buffer at 95° C. (HPLC); type: physicochemical; conditions: 1 mM 2′,3′-substituted ATP
Experimental: The reactions were monitored by analysis of the aliquot of incubated mixture by reverse-phase and anion-exchange HPLC.

Tth DNA ligase = Tth DNA ligase (Thermus thermophilus, UniProt P26996); test: Ligase reaction with OXT-SAP and unsubstituted NAD+ cofactor on matched and mismatched DNA template, PAGE analysis; type: biochemical
Experimental: The ability of Tth DNA ligase to join an OXT-substituted acceptor and donor probes was assessed on a matched and mismatched DNA template in the presence of NAD+ cofactor (see Table 3 for the sequences employed). Each 20 μL reaction was performed in ligase buffer containing 50 mM Tris-HCl (pH 7.5), 10 mM MgCl2, 10 mM dithiothreitol, 25 μg/ml bovine serum albumin and 1 mM NAD+. The OXT-SAP, unsubstituted donor probe and DNA template were at equimolar 0.1 μM concentration. To prevent premature uncontrollable cleavage of the OXT groups from OXT-SAP, the preparation of the ligation mixture was performed in three steps.
First, a binary template-donor complex was prepared by mixing the DNA template and donor strands in ligation buffer, heating the mixture at 95° C. for 2 min, slowly cooling to 4° C. over 15 min, and keeping mixture at 4° C. for 1 hour.
Second, the OXT-SAP was added to the mixture and allowed to stay at 4° C. for 12 hours.
Third, a solutions of NAD+ in ligation buffer was added and ligation was initiated by adding 2 units of Tth DNA ligase to reaction mixture. Ligation proceeded at room temperature for 1 hr and analyzed by PAGE on TBE-Urea denaturing 15% gel (FIG. 12).

Chain of Tth DNA ligase (P26996 whole entry): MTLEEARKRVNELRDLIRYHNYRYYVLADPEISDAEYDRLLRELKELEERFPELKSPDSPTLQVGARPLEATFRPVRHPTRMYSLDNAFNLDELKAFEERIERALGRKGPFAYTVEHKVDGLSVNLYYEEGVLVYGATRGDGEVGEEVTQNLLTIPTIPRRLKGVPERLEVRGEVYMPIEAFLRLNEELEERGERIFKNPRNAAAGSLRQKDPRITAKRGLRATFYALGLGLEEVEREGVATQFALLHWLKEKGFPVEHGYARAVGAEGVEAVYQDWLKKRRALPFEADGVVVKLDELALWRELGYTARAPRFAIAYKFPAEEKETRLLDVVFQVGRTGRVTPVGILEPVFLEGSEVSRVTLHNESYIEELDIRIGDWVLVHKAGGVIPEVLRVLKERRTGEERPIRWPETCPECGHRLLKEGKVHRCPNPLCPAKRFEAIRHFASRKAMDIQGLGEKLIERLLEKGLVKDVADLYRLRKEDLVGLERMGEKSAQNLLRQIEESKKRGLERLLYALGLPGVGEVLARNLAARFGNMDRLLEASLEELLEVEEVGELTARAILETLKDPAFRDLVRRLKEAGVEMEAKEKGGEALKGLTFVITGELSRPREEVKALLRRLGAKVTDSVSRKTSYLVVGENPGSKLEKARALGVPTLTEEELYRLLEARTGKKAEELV
T1 sequence (P00970 whole entry, looked up): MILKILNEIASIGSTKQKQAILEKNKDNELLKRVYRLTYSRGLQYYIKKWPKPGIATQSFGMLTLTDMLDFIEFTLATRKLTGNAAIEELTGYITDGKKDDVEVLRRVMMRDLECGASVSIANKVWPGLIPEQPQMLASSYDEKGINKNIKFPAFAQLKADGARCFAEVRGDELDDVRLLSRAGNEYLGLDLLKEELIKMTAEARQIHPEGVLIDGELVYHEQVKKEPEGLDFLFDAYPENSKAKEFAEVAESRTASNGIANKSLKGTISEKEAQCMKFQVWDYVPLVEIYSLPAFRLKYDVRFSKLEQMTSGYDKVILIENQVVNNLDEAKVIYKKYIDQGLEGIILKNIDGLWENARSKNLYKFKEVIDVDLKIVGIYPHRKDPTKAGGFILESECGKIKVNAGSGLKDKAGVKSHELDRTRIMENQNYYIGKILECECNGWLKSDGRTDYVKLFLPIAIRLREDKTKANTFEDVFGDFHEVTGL

Double OXT23: TACTATGGTCCACACAACTATT(OXT)G(OXT)C T (DNA dTdAdCdTdAdTdGdGdTdCdCdAdCdAdCdAdAdCdTdAdTdT[OXT]dG[OXT]dCdT)
Tm [1]: 65.4 °C | ΔTm (PDE - PTE) [1]: −3.5 °C

Double OXT12: TACTATGGTCCACACAACTATTG(OXT)C (OXT)T (DNA dTdAdCdTdAdTdGdGdTdCdCdAdCdAdCdAdAdCdTdAdTdTdG[OXT]dC[OXT]dT)
Tm [1]: 66.2 °C | ΔTm (PDE - PTE) [1]: −2.6 °C

Single OXT1: TACTATGGTCCACACAACTATTGC (OXT)T (DNA dTdAdCdTdAdTdGdGdTdCdCdAdCdAdCdAdAdCdTdAdTdTdGdC[OXT]dT)
Tm [1]: 67.5 °C | ΔTm (PDE - PTE) [1]: −1.4 °C

Single OXT2: TACTATGGTCCACACAACTATTG(OXT)C T (DNA dTdAdCdTdAdTdGdGdTdCdCdAdCdAdCdAdAdCdTdAdTdTdG[OXT]dCdT)
Tm [1]: 66.6 °C | ΔTm (PDE - PTE) [1]: −2.3 °C

Nc1ncnc2c1ncn2[C@@H]1O[C@H](COP(=O)(O)OP(=O)(O)OP(=O)(O)O)[C@@H](O)[C@H]1O [unsubstituted ATP, ATP]
formation of ligation product (T4 DNA ligase): ample formation of 80(+)-mer ligation product

Nc1ncnc2c1ncn2[C@@H]1O[C@H](COP(=O)(O)OP(=O)(O)OP(=O)(O)O)[C@@H](OC2CCCO2)[C@H]1OC1CCCO1 (stereo partly shown) [—O(THF), 2′,3′-O-bis-tetrahydrofuranyl-adenosine-5′triphosphates]
Concentration of unsubstituted ATP ([2]; ligase buffer pH 7.5, 5 min): 2.8 µM | Concentration of unsubstituted ATP ([2]; ligase buffer pH 7.5, 10 min): 4.6 µM | Concentration of unsubstituted ATP ([2]; ligase buffer pH 7.5, 20 min): 17.3 µM | Concentration of unsubstituted ATP ([2]; ligase buffer pH 7.5, 45 min): 72.7 µM | Concentration of unsubstituted ATP ([2]; ligase buffer pH 7.5, 80 min): 182.2 µM

Unsubstituted: TACTATGGTCCACACAACTATTGCT (Table 7 acceptor probe) (DNA TACTATGGTCCACACAACTATTGCT; acceptor probe, label not given here) [reference compound]
Tm [1]: 68.9 °C

unsubstituted acceptor probe: CCCTGTTCCAGCGTCGGTGTTGCGTT (Table 3) (unmodified DNA)
formation of ligation product (Tth DNA ligase; matched template, additionally incubated 1 h at 75° C.): ample formation of ligation product | formation of ligation product (Tth DNA ligase; matched template, room temperature, 1 hr): efficient formation of ligation product | formation of ligation product (Tth DNA ligase; mismatched DNA template, 120 hrs of incubation): a small amount of ligation product was formed | formation of ligation product (Tth DNA ligase; mismatched DNA template, 120 hrs, additionally incubated 1 h at 75° C.): substantial accumulation of ligation product
